Source: patent US20250149635A1, “SILICATE PLATFORM AS WEAKLY-COORDINATING ANIONS FOR DIVERSE ORGANOMETALLIC TRANSFORMATIONS AND ELECTROCHEMICAL APPLICATIONS” (California Institute of Technology, priority 2023, published 2025)

Columns and labels:
[1] = C2H4/CO copolymerization trials with cationic Pd catalyst
Description: In a N2 glovebox, Pd catalyst (10 μmol) was dissolved in toluene (10 mL) was transferred to a Fisher-Porter vessel. The reactor was removed from the glovebox and connected to a C2H4/CO gas feed. The N2 atmosphere was replaced with a 1:1 mixture of C2H4/CO (flow rate 300 sccm for each gas) by pressurizing the vessel to 100 psi and venting 3×. After pressurizing to 100 psi, polymerization was run for 3 hr at RT. The reaction was quenched upon exposure to air, and the polymer was precipitated by stirring with acidic methanol (0.6 mL HCl/10 mL MeOH). The polymer was collected and dried under vacuum overnight.
NMRs were recorded in a mixture of 1, 1, 1, 3, 3, 3-hexafluoro-2-propanol and C6D6 (4:1) at RT.

[2] = Cyclic voltammetry of Mg deposition/stripping in DME; assay type: physicochemical; settings: for deposition overpotential: 0.25-0.26 M in DME with 10 mM Me2Mg, Pt wire WE, 25 mVs^−1; for oxidative stability: in DME, with 10 mM Me2Mg, sweep to 4.75 V
Description: FIG. 14A: Cyclic voltammetry experiments of 0.26 M 1-[Mg(DME)3] with 10 mM of Me2Mg. WE: Pt wire; CE: Mg strip; RE: Mg strip; Scan rate: 25 mVs^−1; Cycling protocol: −0.8 V to 4.0 V, 100 cycles. FIG. 14B: Cycles 1, 25, 50, 75, 100. FIG. 14C: Coulombic efficiency cycles 1-100; Cyclic voltammetry experiments of 0.26 M 1-[Mg(DME)3] with 10 mM of Me2Mg.
FIG. 15A: Cyclic voltammetry experiments of 0.25 M 2-[Mg(DME)3] with 10 mM of Me2Mg. WE: Pt wire; CE: Mg strip; RE: Mg strip; Scan rate: 25 mVs^−1; Cycling protocol: −0.8 V to 3.8 V, 100 cycles; FIG. 15B: Cycles 1, 25, 50, 75, 100. FIG. 15C: Coulombic efficiency cycles 1-100; Cyclic voltammetry experiments of 0.25 M 2-[Mg(DME)3] with 10 mM of Me2Mg.
FIG. 20: Cyclic voltammetry experiments of 0.26 M 1-[Mg(DME)3] in DME.WE: Pt wire; CE: Mg strip; RE: Mg strip; Scan rate: 25 mVs^−1; Cycling protocol: −0.8 V to 4.0 V, 200 cycles.
Cyclic voltammetry experiments of 1-[Mg(DME)3] were run in an empty N2-filled glovebox fitted with a purifier system that consists of a purifier cartridge (ca. 50% activated 4 Å molecular sieves and activated Cu catalyst) and a circulator fan, no solvent or chemicals were stored in the glovebox. Electrolyte solutions were prepared in a separate glovebox by dissolving 1-[Mg(DME)3] in 500 μL of DME and stirred with a new Teflon stir bar until complete dissolution. DME and 1-[Mg(DME)3] were only used with the glovebox circulation purifier turned off after extensive (minimum 20 minutes at […] above atmospheric pressure to ensure full atmosphere exchange) purging of the glovebox atmosphere to avoid cross-contamination with other atmospheric solvents. Upon complete dissolution of the electrolyte, the electrolyte solution was sealed and transported to the electrochemistry glovebox immediately before electrochemical experiments were performed.
Mg electrodes (99.9%, MTI) were polished with a razor blade immediately before use. Pt electrodes (wire, 0.5 mm diameter, 99.995%, Thermo Scientific) were soaked in concentrated HNO3 for at least 72 hours, rinsed with deionized water at least thrice, annealed with an H2 torch, and immediately brought into the glovebox in a flame-dried 20 mL scintillation vial while hot. Cyclic voltammetry experiments of 1-[Mg(DME)3] were performed in glass cells with 0.5 mL of electrolyte. A Pt wire served as the working electrode (WE), and Mg foils were the counter and reference electrodes (CE and RE). Experiments of 1-[Mg(DME)3] were conducted on either a Biologic SP150 potentiostat or a Biologic VSP-300 potentiostat.

[3] = calculated, literature ref. 47; cited from earlier work
[4] = Solubility determination by 19F NMR with fluorobenzene internal standard
Description: Each sample was filtered, and 600 μL was transferred to a new vial. Fluorobenzene (5 μL) was added as an internal standard to the filtered solution and mixed thoroughly via pipette.

[5] = Cyclic and linear sweep voltammetry of 0.1 M tetra-n-butylammonium salts in MeCN (electrochemical stability window); assay type: physicochemical
From the text: FIG. 12: Cyclic voltammetry and linear sweep voltammetry experiments of 0.1 M 1-[Bu4N] and [Bu4N][PF6] in MeCN; Current shown were normalized to the highest current in each experiment; FIG. 12A: Cyclic voltammogram of 1-[Bu4N] in MeCN; WE: Glassy carbon; CE: Pt wire; RE: Ag wire; scan rate=100 mVs^−1; FIGS. 12B and 12C: Linear sweep voltammograms of 0.1 M 1-[Bu4N] and [Bu4N][PF6] in MeCN; WE: Glassy carbon; CE: Pt wire; RE: Ag wire; scan rate=50 mVs^−1.
Linear sweep voltammetry experiments of 1-[Bu4N] and [Bu4N][PF6] were performed under an N2 atmosphere using a Pine Instrument Company AFCBP1 bipotentiostat using the AfterMath software package. Linear sweep voltammograms were recorded in the glovebox at 25° C. with an auxiliary Pt-coil counter electrode, Ag-wire reference electrode, and 3.0 mm glassy carbon working electrode (BASI). The electrolyte solution was 0.1 M of the corresponding tetra-n-butylammonium salt in MeCN. All reported values are referenced to an internal ferrocene/ferrocenium couple.

[6] = 10 μmol Pd catalyst in toluene, 100 psi 1:1 C2H4/CO, 3 hr at RT
[7] = 0.1 M Bu4N salt in MeCN, glassy carbon WE

For “[Pd(dppe)(NCMe)Me][^tBu2ArSi^F24] [3-[Pd(dppe)(NCMe)Me]]”, the Activity [1, 6] was 1.67 g/mmol/h, the “Polymer Yield” value [1, 6] was 50.2 and the Activity ([1]; 100 psi of C2H4/CO) was 1.7 g/mmol/h.

In the case of [Pd(dppe)(NCMe)Me]^+[^MeSi^F24], the Activity [1, 6] is reported as 1.06 g/mmol/h and the “Polymer Yield” value [1, 6] is reported as 31.9.

With `COCCOC.COCCOC.COCCOC.C[Si-]12(OC(C(F)(F)F)(C(F)(F)F)C(C(F)(F)F)(C(F)(F)F)O1)OC(C(F)(F)F)(C(F)(F)F)C(C(F)(F)F)(C(F)(F)F)O2.C[Si-]12(OC(C(F)(F)F)(C(F)(F)F)C(C(F)(F)F)(C(F)(F)F)O1)OC(C(F)(F)F)(C(F)(F)F)C(C(F)(F)F)(C(F)(F)F)O2.[Mg+2]` [1-[Mg(DME)3], [Mg(DME)3][^MeSi^F24]2] the deposition overpotential [2] was “ca. −420 mV vs. Mg/Mg^2+”, the “reductive overpotential, stabilized over continuous cycling” value ([2]; 0.26 M in DME, absence of Me2Mg) was “ca. 400 mV” and the “coulombic efficiency, stabilized with cycling” value ([2]; 0.26 M in DME, absence of Me2Mg, −0.8 to 2.0 V vs. Mg/Mg^2+) was “ca. 96%”.

For (MeCN)Si(O2C6F12)2, the fluoride affinity [3] is listed as 113 kcal/mol.

For [K][^tBu2ArSi^F24] [3-[K]], the “solubility in CH2Cl2 (in words)” value ([4]; CH2Cl2) was “high solubility”, the solubility in benzene ([4]; in benzene, stirred 16 hr, filtered, 19F NMR) was 100 µM and the solubility in dichloromethane ([4]; in dichloromethane, 19F NMR) was 400 µM.

With `C[Si-]12(OC(C(F)(F)F)(C(F)(F)F)C(C(F)(F)F)(C(F)(F)F)O1)OC(C(F)(F)F)(C(F)(F)F)C(C(F)(F)F)(C(F)(F)F)O2` [[^MeSi^F24]] the oxidative stability [2] was “ca. 4.2 V vs. Mg/Mg^2+”, the “oxidative stability (stable up to)” value [5, 7] was “up to 4.5 V vs. Fc/Fc^+” and the reductive stability [5, 7] was “ca. −3.1 V vs. Fc/Fc^+”. The electrochemical stability window ([5]; in MeCN) was 7.5 V and the “oxidative stability surpassing that of PF6^−” value ([5]; in MeCN, versus [Bu4N][PF6]) was “ca. 1 V”.

In the case of [Mg(DME)3][^PhSi^F24]2 [2-[Mg(DME)3]], the deposition overpotential [2] is reported as “ca. −350 mV vs. Mg/Mg^2+” and the oxidative stability [2] is reported as “ca. 4.05 V vs. Mg/Mg^2+”.

For `F[P-](F)(F)(F)(F)F` [PF6^−, reference compound], the reductive stability [5, 7] was “ca. −3.1 V vs. Fc/Fc^+”.

With [Bu4N][^MeSi^F24] [1-[Bu4N]] the electrochemical stability window ([5]; in MeCN) was “ca. 7.5 V”.

With `CC#N.FC(F)(F)c1cc([B-](c2cc(C(F)(F)F)cc(C(F)(F)F)c2)(c2cc(C(F)(F)F)cc(C(F)(F)F)c2)c2cc(C(F)(F)F)cc(C(F)(F)F)c2)cc(C(F)(F)F)c1.[CH3][Pd+]1[PH](c2ccccc2)(c2ccccc2)CC[PH]1(c1ccccc1)c1ccccc1` [[Pd(dppe)(NCMe)Me]^+[BAr^F24]^−, [Pd(dppe)(NCMe)Me][BAr^F24], reference compound] the Activity [1, 6] was 2.28 g/mmol/h, the “Polymer Yield” value [1, 6] was 68.6 and the Activity ([1]; 100 psi of C2H4/CO) was 2.3 g/mmol/h.

In the case of `[F][Sb]([F])([F])([F])[F]` [SbF5], the fluoride affinity [3] is given as 120 kcal/mol.
